In PMC4826333 (Journal of medicinal chemistry, 2015):

Tests used:
[1] = test system: PC-3, DU-145, LNCaP, and HeLa; assay: Trypan blue cytotoxicity, panel of cancer cell lines; details: four cancer cell lines; for cytotoxicity as compared with curcumin: 1 and 10 μM
PC-3, DU145, LNCaP, HeLa = assay: Relative potency versus curcumin over the cancer cell lines, WST-1 and TB; format: cell-based, human; details: in the tested cancer cell lines

With Cn1cncc1/C=C/C(=O)/C=C/c1cncn1C [Compound 16, (1E,4E)-1,5-Bis(1-methyl-1H-imidazol-5-yl)penta-1,4-dien-3-one] the “cytotoxicity as compared with curcumin” value [1] was “as effective (or slightly more effective) as curcumin”.
For Cn1cc(/C=C/C(=O)/C=C/c2cnn(C)c2)cn1 [Compound 17, (1E,4E)-1,5-Bis(1-methyl-1H-pyrazol-4-yl)penta-1,4-dien-3-one], the “activity at 10 μM concentration” value [1] was “almost inactive” and the “cytotoxicity as compared with curcumin” value [1] was “did not show increased or similar cytotoxicity”.
Cn1nc(C(F)(F)F)c(/C=C/C(=O)/C=C/c2c(C(F)(F)F)nn(C)c2Cl)c1Cl [Compound 18, (1E,4E)-1,5-Bis(5-chloro-1-methyl-3-(trifluoromethyl)-1H-pyrazol-4-yl)penta-1,4-dien-3-one] was tested, and the “cytotoxicity as compared with curcumin” value [1] was “as effective (or slightly more effective) as curcumin”.
With O=C(/C=C/c1cocn1)/C=C/c1cocn1 [Compound 20, (1E,4E)-1,5-Bis(oxazol-4-yl)penta-1,4-dien-3-one] the “cytotoxicity as compared with curcumin” value [1] was “as effective (or slightly more effective) as curcumin”.
Cc1nc(C(F)(F)F)c(/C=C/C(=O)/C=C/c2sc(C)nc2C(F)(F)F)s1 [Compound 24, (1E,4E)-1,5-Bis(2-methyl-4-(trifluoromethyl)thiazol-5-yl)-penta-1,4-dien-3-one] was tested, and the “times more potent than curcumin” value (PC-3, DU145, LNCaP, HeLa) was 11–36 times.
In the case of O=C(/C=C/c1cccnc1)/C=C/c1cccnc1 [Compound 27, (1E,4E)-1,5-Di(pyridin-3-yl)penta-1,4-dien-3-one], the “cytotoxicity as compared with curcumin” value [1] is reported as “as effective (or slightly more effective) as curcumin”.
O=C(/C=C/c1ccc2ccccc2n1)/C=C/c1ccc2ccccc2n1 [Compound 31, (1E,4E)-1,5-Di(quinolin-2-yl)penta-1,4-dien-3-one] was tested, and the “cytotoxicity as compared with curcumin” value [1] was “as effective (or slightly more effective) as curcumin”.
With O=C(/C=C/c1ccnc2ccccc12)/C=C/c1ccnc2ccccc12 [Compound 32, (1E,4E)-1,5-Di(quinolin-4-yl)penta-1,4-dien-3-one] the “cytotoxicity as compared with curcumin” value [1] was “as effective (or slightly more effective) as curcumin”.
For O=C(/C=C/c1cc2ccccc2nc1Cl)/C=C/c1cc2ccccc2nc1Cl [Compound 33, (1E,4E)-1,5-Bis(2-chloroquinolin-3-yl)penta-1,4-dien-3-one], the “activity at 10 μM concentration” value [1] was “almost inactive” and the “cytotoxicity as compared with curcumin” value [1] was “did not show increased or similar cytotoxicity”.
For Cc1nc(/C=C/C(=O)/C=C/c2nc(C)c(-c3ccncc3)s2)sc1-c1ccncc1 [Compound 34, (1E,4E)-1,5-Bis(4-methyl-5-(pyridin-4-yl)thiazol-2-yl)penta-1,4-dien-3-one], the “activity at 10 μM concentration” value [1] was “almost inactive” and the “cytotoxicity as compared with curcumin” value [1] was “did not show increased or similar cytotoxicity”.
With O=C(/C=C/c1nc2ccccc2s1)/C=C/c1nc2ccccc2s1 [Compound 35, (1E,4E)-1,5-Bis(benzo[d]thiazol-2-yl)penta-1,4-dien-3-one] the “cytotoxicity as compared with curcumin” value [1] was “as effective (or slightly more effective) as curcumin”.
